Experimental data: patent publication US20090176773A1, “Non-Peptidic Inhibitors of AKAP/PKA Interaction” (FORSCHUNGSVERBUND BERLIN E.V., priority 2005, published 2009)

What was measured:
[1] = tested on: vasopressin (AVP)-dependent redistribution of the aquaporin-2 (AQP2) water channel in renal principal cells (IMCD cells); assay: AVP-induced redistribution of AQP2 in primarily cultured IMCD cells (immunofluorescence, laser scanning microscope); assay type: cell-based, rat; settings: FIG. 18 and 21
Protocol: Initially, collecting duct cells from the inner medulla of rat kidneys (IMCD cells) can be stimulated with AVP in the presence or absence of the substances so as to stimulate AQP2 translocation. Thereafter, immunofluorescence staining can be performed, wherein the cells—following incubation—are fixed and made permeable. Using antibodies coupled to fluorescent dyes, the intracellular localization of AQP2 can subsequently be determined under a fluorescence microscope. In this way it is possible to investigate the influence of the substances on the presumably AKAP18delta-dependent translocation of AQP2.
Inhibition of the vasopressin (AVP)-dependent redistribution of the aquaporin-2 (AQP2) water channel in renal principal cells by the substances specified (see Table B; concentrations of inhibitors in μM). Primarily cultured principal cells from the inner medulla of rat kidneys (IMCD cells) represent a model for the AVP-induced translocation of AQP2. Said redistribution is the molecular basis of AVP-induced water reabsorption in the kidneys. AQP2 was detected by means of a specific antiserum and Cy3-labelled secondary antibodies in untreated cells (control) and in cells treated with AVP or substances, using a laser scanning microscope (Tamma et al., 2003; Henn et al., 2004).
Effect of the low-molecular weight substances 18882, 990 and 990 derivatives SM61 and SM65 on AVP-induced redistribution of AQP2 in IMCD cells (see FIG. 18). The structures and chemical properties of the substances are illustrated in Tables A, B and C (concentrations of inhibitors in μM). AQP2 was detected by means of a specific antiserum and Cy3-labelled secondary antibodies in untreated cells (control) and in cells treated with AVP or substances, using a laser scanning microscope (Tamma et al., 2003; Henn et al., 2004). […] In contrast, the substances 18882 and the 990 derivative SM65 have no influence on AVP-induced AQP2 redistribution at the concentrations used.

[2] = biological target: T1, interaction of AKAP18delta with regulatory RIIalpha subunits of PKA in IMCD cells (Rattus norvegicus, UniProt P12368+Q6JP77); assay: cAMP agarose precipitation, Western blot and RII overlay in IMCD cells; assay type: cell-based; settings: 100 μM, 30 min, FIG. 22
T1 construct: endogenous in cells; host or cells: primary cultured rat IMCD cells
Protocol: The substance (see Tables A, B and D) was identified by screening a substance library comprising 20,064 compounds, using the ELISA-based test array illustrated in FIG. 17. Primarily cultured IMCD cells either remained untreated (control) or were incubated for 30 min with substance 990 (100 μM) or with cAMP as negative control. Subsequently, the cells were lysed and subjected to cAMP agarose precipitation (Henn et al., JBC 279, 26654, 2004).
A: AKAP18delta was detected in the lysates and in the cAMP agarose precipitates (cAMP agarose) using the AKAP18delta-specific antibody A18delta4 in a Western blot (Henn et al., 2004). cAMP was added to the batch as negative control. As a result, binding of regulatory subunits of PKA to the cAMP agarose was inhibited in a competitive fashion. For this reason, no AKAPs are precipitated and, as a consequence, AKAP18delta cannot be detected in this sample. AKAP18delta produced in a recombinant fashion was used as positive control.
B: To detect the AKAPs in the lysates and cAMP agarose precipitates, an RII overlay was carried out (Henn et al., JBC 279, 26654, 2004). AKAP18delta produced in a recombinant fashion was detected as positive control. AKAP18delta is indicated by arrows in A and B.

[3] = biological target: T2, interaction of AKAP18delta with regulatory RIIalpha subunits of PKA in myocardial cells (Rattus norvegicus, UniProt P12368+Q6JP77); assay: cAMP agarose precipitation, Western blot and RII overlay in neonatal myocardial cells; assay type: cell-based; settings: 100 μM, 30 min, FIG. 23
T2 construct: endogenous in cells; host or cells: primary cultured neonatal (rat) myocardial cells
Protocol: In contrast, substance 990 has no influence on this interaction. The substances (see Tables A, B and D) were identified by screening a substance library comprising 20,064 compounds, using the ELISA-based test array illustrated in FIG. 17. Primarily cultured neonatal myocardial cells either remained untreated (control) or were incubated for 30 min with the substances 990, 18882 (100 μM each time) or with cAMP as negative control. Subsequently, the cells were lysed and subjected to cAMP agarose precipitation (Henn et al., JBC 279, 26654, 2004). A: AKAP18delta was detected in the lysates and in the cAMP agarose precipitates (cAMP agarose), using the AKAP18delta-specific antibody A18delta4 in a Western blot (Henn et al., JBC 279, 26654, 2004). cAMP was added to the batch as negative control. As a result, binding of regulatory subunits of PKA to the cAMP agarose was inhibited in a competitive fashion. For this reason, no AKAPs are precipitated and, as a consequence, AKAP18delta cannot be detected in this sample. AKAP18delta produced in a recombinant fashion was used as positive control. B: Using Western blotting, regulatory RIIbeta subunits of PKA were detected in the same samples as specified in A. As expected, no RIIbeta is detected in the sample containing cAMP (see A.). […] AKAP18delta produced in a recombinant fashion was detected as positive control.

[4] = tested on: L-type Ca^2+ channel currents; assay: Patch-clamp measurement of L-type Ca2+ channel currents in neonatal rat myocardial cells; assay type: cell-based; settings: isoproterenol 1 μM stimulation, FIG. 24
Source text: Another experiment is measurement of the Ca^2+ currents through L-type Ca^2+ channels in primarily cultured myocardial cells from neonatal rats using the patch clamp technique. To this effect, membrane sections of a single cell are fixed by a buffer-filled glass capillary, and a constant voltage is applied across the membrane. A current pulse can trigger a measurable increase of the Ca^2+ current through the voltage-dependent L-type Ca^2+ channels situated in the fixed membrane region.
After stimulating the cells with the non-specific β-adrenoreceptor agonist isoproterenol, an increase of the Ca^2+ channel current is to be expected because receptor activation triggers the AKAP18alpha-dependent signal cascade described in section 3.3. As a result, the L-type Ca^2+ channel is phosphorylated, thereby increasing its open probability. Such measurements can be performed in the presence or absence of the substances, so that the effect on the signaling pathway can be quantified indirectly via the currents being measured.
L-type Ca^2+ channel currents were measured in neonatal rat myocardial cells using the patch-clamp technique. The cells were held at −70 mV and repeatedly depolarized to a test potential of 0 mV (after an increase to −35 mV for 400 ms). […] Currents were measured 400 s after the whole cell configuration had established. […]

T2 sequence (P12368 2-401): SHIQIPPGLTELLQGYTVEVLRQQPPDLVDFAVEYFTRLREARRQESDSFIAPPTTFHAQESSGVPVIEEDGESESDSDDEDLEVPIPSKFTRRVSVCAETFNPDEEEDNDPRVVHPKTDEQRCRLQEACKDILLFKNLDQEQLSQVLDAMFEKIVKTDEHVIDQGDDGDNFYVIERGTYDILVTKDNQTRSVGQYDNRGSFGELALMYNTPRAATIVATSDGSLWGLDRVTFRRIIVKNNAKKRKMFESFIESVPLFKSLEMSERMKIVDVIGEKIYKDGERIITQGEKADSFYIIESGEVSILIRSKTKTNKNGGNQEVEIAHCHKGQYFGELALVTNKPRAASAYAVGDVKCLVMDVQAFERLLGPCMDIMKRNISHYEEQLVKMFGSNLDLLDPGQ
T2 sequence (Q6JP77 whole entry): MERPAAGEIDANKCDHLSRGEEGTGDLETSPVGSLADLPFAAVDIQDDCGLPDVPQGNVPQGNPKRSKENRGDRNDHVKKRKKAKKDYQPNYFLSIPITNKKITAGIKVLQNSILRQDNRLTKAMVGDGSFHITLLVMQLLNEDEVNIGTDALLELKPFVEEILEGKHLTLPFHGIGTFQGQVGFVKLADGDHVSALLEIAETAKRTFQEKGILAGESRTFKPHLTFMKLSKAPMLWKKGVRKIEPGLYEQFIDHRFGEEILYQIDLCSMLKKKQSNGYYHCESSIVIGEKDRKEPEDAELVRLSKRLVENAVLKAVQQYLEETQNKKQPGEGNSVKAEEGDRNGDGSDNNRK
T1 sequence (Q6JP77 whole entry): as above
T1 sequence (P12368 whole entry): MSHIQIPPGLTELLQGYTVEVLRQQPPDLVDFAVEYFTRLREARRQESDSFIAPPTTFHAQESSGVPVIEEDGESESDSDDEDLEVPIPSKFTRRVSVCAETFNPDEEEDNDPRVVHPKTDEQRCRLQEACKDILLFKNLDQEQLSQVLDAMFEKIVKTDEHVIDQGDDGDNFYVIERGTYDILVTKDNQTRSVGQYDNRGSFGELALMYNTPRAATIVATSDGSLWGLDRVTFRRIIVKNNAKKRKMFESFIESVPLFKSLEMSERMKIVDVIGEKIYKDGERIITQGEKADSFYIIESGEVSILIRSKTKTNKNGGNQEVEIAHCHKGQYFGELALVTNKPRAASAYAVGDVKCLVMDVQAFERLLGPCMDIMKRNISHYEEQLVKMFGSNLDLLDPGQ

| SMILES | Effect on AVP-induced redistribution of AQP2 [1] | Inhibition of AKAP18delta-RIIalpha interaction in IMCD cells [2] | Inhibition of AKAP18delta-RIIalpha interaction in myocardial cells [3] | Effect on L-type Ca2+ channel currents [4] |
| --- | --- | --- | --- | --- |
| N=C(N)SCc1cccc2ccccc12 [Compound 990] | prevents the AVP-induced redistribution of AQP2 | inhibits the interaction | no influence |  |
| Nc1cc(Cc2ccc(O)c(N)c2)ccc1O [Compound 18882] | no influence |  | inhibits the interaction | Inhibition of L-type Ca^2+ channel currents |
